Test results published in patent US5877210A, “Phosphotyrosine phosphatase inhibitors or phosphotyrosine kinase activators for controlling cellular proliferation” (priority 1995, dated 1999).
Several values for one entry are separate records, joined by “and”; a condition that tells them apart may be missing. Equal values may be shown once.

Experiments:
[1] = test system: peripheral blood lymphocytes; assay: Leukocyte counts in mice after pV(phen); assay type: in vivo, BALB/C mice; settings: one dose i.p.; for Absolute Counts: Eosinophil / Absolute Counts: Lymphocyte / Absolute Counts: Monocyte / Absolute Counts: Neutrophil: blood 24 hr later, individual animals
Description: BALB/C mice received one dose of pV(phen) i.p. and their blood was examined 24 hr later.

PP2A = biological target: T1, PP2A (Homo sapiens, UniProt P67775); assay: Serine/threonine phosphatase PP2A inhibition; assay type: biochemical; settings: vs CD45 and PTP1B
T1 construct: purchased Upstate Biotechnology, Lake Placid, N.Y
T1 sequence (P67775 whole entry): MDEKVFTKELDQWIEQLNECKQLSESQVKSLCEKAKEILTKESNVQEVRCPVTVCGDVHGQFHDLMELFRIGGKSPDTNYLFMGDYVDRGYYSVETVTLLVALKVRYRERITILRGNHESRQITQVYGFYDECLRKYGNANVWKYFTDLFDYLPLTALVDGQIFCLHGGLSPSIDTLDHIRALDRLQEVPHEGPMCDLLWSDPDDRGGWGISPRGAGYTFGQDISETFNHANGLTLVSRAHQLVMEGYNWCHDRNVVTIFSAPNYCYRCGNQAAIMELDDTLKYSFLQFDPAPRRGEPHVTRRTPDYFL

Ramos B cells = assay type: cell-based, human
Description: These effects were synergistic rather than additive in that an approximately 5-fold enhancement in sensitization for the combination treatment was observed relative to expected additive effects based on the use of either treatment alone.

[2] = test system: antibody-producing B cells; assay: Class-switching: Ig production by anti-CD40 + IL-4 treated B cells; assay type: cell-based, human
Protocol: The effects of BMLOV were assayed on class-switching in antibody-producing B cells. Human B cells producing antibody were treated with anti-CD40 antibody plus IL-4, which increased production of IgE over 10-fold (Table 7). […] In contrast, the production of IgG1 and IgG4 was much less affected, particularly at a dose of 5.6 μM BMLOV. This selective effect is important because the IgG antibody production is an important response to infectious disease. It would be of value to suppress IgE production for the treatment of allergies while maintaining IgG production, particularly in conditions in which an allergy coexists with an infectious disease. A common example is the exacerbation of allergic rhinitis (hay fever) as the result of a respiratory infection.

[3] = Anti-CD40 + IL-4 + 0.002 μM BMLOV
[4] = Anti-CD40 + IL-4 + 0.008 μM BMLOV
[5] = Anti-CD40 + IL-4 + 0.02 μM BMLOV
[6] = Anti-CD40 + IL-4 + 0.07 μM BMLOV
[7] = Anti-CD40 + IL-4 + 0.2 μM BMLOV
[8] = Anti-CD40 + IL-4 + 0.6 μM BMLOV
[9] = Anti-CD40 + IL-4 + 1.9 μM BMLOV
[10] = Anti-CD40 + IL-4 + 5.6 μM BMLOV

Q: `[Na+].[O]=[V-]12([O][O]1)[O][O]2.c1cnc2c(c1)ccc1cccnc12` [pV(phen), sodium (1,10-phenanthroline) oxodiperoxovanadium (V)] was tested. Which “Absolute Counts: Eosinophil” value ([1]; Dose 1 μM) did it give?
A: 244 and 26

Q: And the “Absolute Counts: Lymphocyte” value ([1]; Dose 1 μM)?
A: 3848 and 1612

Q: And the “Absolute Counts: Monocyte” value ([1]; Dose 1 μM)?
A: 488 and 104

Q: And the “Absolute Counts: Neutrophil” value ([1]; Dose 1 μM)?
A: 1525 and 858

Q: What about the “Absolute Counts: Eosinophil” value ([1]; Dose 2 μM) of the same compound?
A: 78 and 81

Q: What about the “Absolute Counts: Lymphocyte” value ([1]; Dose 2 μM) of the same compound?
A: 1560 and 2511

Q: And the “Absolute Counts: Monocyte” value ([1]; Dose 2 μM)?
A: 390 and 0

Q: And the “Absolute Counts: Neutrophil” value ([1]; Dose 2 μM)?
A: 1872 and 5508

Q: And the “effect on monocytes, in words” value ([1]; 24 hr)?
A: no consistent effect was observed

Q: And the “number of neutrophils, in words” value ([1]; 24 hr)?
A: substantially increased

Q: What about the “number of peripheral blood lymphocytes, in words” value ([1]; 24 hr) of the same compound?
A: markedly reduced

Q: With `Cc1occc(=O)c1[O-].Cc1occc(=O)c1[O-].[O]=[V+2]` [BMLOV, Bis(maltolato)oxovanadium (IV)] as the compound, how does the “concentration for similar inhibition relative to phosphotyrosine phosphatases” value (PP2A) read?
A: over 100 fold

Q: What about the “enhancement in sensitization relative to expected additive effects” value (Ramos B cells; combination of BMLOV and radiation) of the same compound?
A: approximately 5 fold

Q: What about the “increase in cell death relative to radiation alone” value (Ramos B cells; ramos b cells, 1 µM) of the same compound?
A: 10 fold

Q: And the “increase in clonogenic cell death relative to radiation alone” value (Ramos B cells; ramos b cells, 2 µM)?
A: 50 fold

Q: What about the “increased production of IgE, in words” value ([2]; 5.6 or 17 μM BMLOV) of the same compound?
A: markedly inhibited

Q: And the “[Ig] IgE” value [2, 3]?
A: 3.9 ng/mL

Q: What about the “[Ig] IgG1” value [2, 3] of the same compound?
A: 450 ng/mL

Q: What about the “[Ig] IgG4” value [2, 3] of the same compound?
A: 1.7 ng/mL

Q: And the “[Ig] IgM” value [2, 3]?
A: 20.4 ng/mL

Q: And the “[Ig] IgE” value [2, 4]?
A: 2.6 ng/mL

Q: What about the “[Ig] IgG1” value [2, 4] of the same compound?
A: 450 ng/mL

Q: And the “[Ig] IgG4” value [2, 4]?
A: 1.1 ng/mL

Q: What about the “[Ig] IgM” value [2, 4] of the same compound?
A: 20.4 ng/mL

Q: And the “[Ig] IgE” value [2, 5]?
A: 4.5 ng/mL

Q: And the “[Ig] IgG1” value [2, 5]?
A: 390 ng/mL

Q: What about the “[Ig] IgG4” value [2, 5] of the same compound?
A: 1.3 ng/mL

Q: And the “[Ig] IgM” value [2, 5]?
A: 19.2 ng/mL

Q: And the “[Ig] IgE” value [2, 6]?
A: 5.1 ng/mL

Q: And the “[Ig] IgG1” value [2, 6]?
A: 450 ng/mL

Q: What about the “[Ig] IgG4” value [2, 6] of the same compound?
A: 2.7 ng/mL

Q: What about the “[Ig] IgM” value [2, 6] of the same compound?
A: 12.0 ng/mL

Q: And the “[Ig] IgE” value [2, 7]?
A: 7.5 ng/mL

Q: And the “[Ig] IgG1” value [2, 7]?
A: 495 ng/mL

Q: What about the “[Ig] IgG4” value [2, 7] of the same compound?
A: 1.2 ng/mL

Q: And the “[Ig] IgM” value [2, 7]?
A: 13.8 ng/mL

Q: What about the “[Ig] IgE” value [2, 8] of the same compound?
A: 5.7 ng/mL

Q: What about the “[Ig] IgG1” value [2, 8] of the same compound?
A: 480 ng/mL

Q: What about the “[Ig] IgG4” value [2, 8] of the same compound?
A: 1.3 ng/mL

Q: What about the “[Ig] IgM” value [2, 8] of the same compound?
A: 17.4 ng/mL

Q: And the “[Ig] IgE” value [2, 9]?
A: 3.0 ng/mL

Q: What about the “[Ig] IgG1” value [2, 9] of the same compound?
A: 450 ng/mL

Q: What about the “[Ig] IgG4” value [2, 9] of the same compound?
A: 2.7 ng/mL

Q: And the “[Ig] IgM” value [2, 9]?
A: 15.6 ng/mL

Q: What about the “[Ig] IgE” value [2, 10] of the same compound?
A: 1.2 ng/mL

Q: What about the “[Ig] IgG1” value [2, 10] of the same compound?
A: 480 ng/mL

Q: And the “[Ig] IgG4” value [2, 10]?
A: 1.8 ng/mL

Q: What about the “[Ig] IgM” value [2, 10] of the same compound?
A: 18.6 ng/mL

Q: And the “[Ig] IgE” value ([2]; Anti-CD40 + IL-4 + 17 μM BMLOV)?
A: 0.8 ng/mL

Q: And the “[Ig] IgG1” value ([2]; Anti-CD40 + IL-4 + 17 μM BMLOV)?
A: 450 ng/mL

Q: What about the “[Ig] IgG4” value ([2]; Anti-CD40 + IL-4 + 17 μM BMLOV) of the same compound?
A: 0.8 ng/mL

Q: What about the “[Ig] IgM” value ([2]; Anti-CD40 + IL-4 + 17 μM BMLOV) of the same compound?
A: 18.0 ng/mL

Q: What about the “[Ig] IgE” value ([2]; Anti-CD40 + IL-4 + 50 μM BMLOV) of the same compound?
A: 0.2 ng/mL

Q: And the “[Ig] IgG1” value ([2]; Anti-CD40 + IL-4 + 50 μM BMLOV)?
A: 60 ng/mL

Q: What about the “[Ig] IgG4” value ([2]; Anti-CD40 + IL-4 + 50 μM BMLOV) of the same compound?
A: 0.5 ng/mL

Q: And the “[Ig] IgM” value ([2]; Anti-CD40 + IL-4 + 50 μM BMLOV)?
A: 5.1 ng/mL
